Source: patent publication US20090311344A1, “Dosing Regimen” (priority 2008, published 2009)
“Also recorded” adds a separate entry of the source.

Tests used:
[1] = mouse, in vivo
Excerpt: Animals were weighed daily for the first five days of the study and then twice weekly.
Animals were monitored for adverse treatment-related effects by frequent observation and body-weight (BW) measurements (data not shown).

platelet count = assay: Multiple dose study in cancer subjects receiving platinum-based chemotherapy: platelet counts; type: in vivo, human; conditions: for Maximum Platelet Counts, Geometric Mean: in 10^9/L (unit assumed)
Excerpt: A total of 7 subjects were excluded from the preliminary statistical analysis of Day 42 platelet count data and 9 subjects were excluded from the preliminary statistical analysis of Day 42 hemoglobin data due to either incorrect randomization, platelet transfusion, not administered the 2nd dose of study medication, or lost to follow-up.

[2] = Single dose study in healthy subjects: pharmacokinetics; type: in vivo, human
Experimental: The median tmax of the TPO mimetic peptide compound ranged between 0.09 to 2 hours following single i.v. administration. […] However, the elimination phase appeared consistent across the dose range.

[3] = tested on: platelets, reticulocytes, hematocrit; assay: CBC analysis and reticulocyte counts in HT-29 tumor-bearing mice (Groups 6-9); type: in vivo, athymic nude mice
Experimental: Five groups (n=10) of female athymic nude mice (Harlan) bearing established (˜100 mm^3) HT-29 human colon carcinomas on Day 1. Groups 6-9 (n=20) were included for blood sampling and received the same treatment as Groups 1-4, respectively. Treatment effects on the growth of tumors were evaluated by tumor growth delay (TGD), which is the difference between median time to endpoint (TTE) tumor size in a treatment group compared to a control group. […]
Group 1 mice (n=10) were untreated tumor growth controls. Group 2 mice (n=10) received 60 mg/kg carboplatin administered intraperitoneally (i.p.) on Days 1, 2, 12, and 13. Group 3 mice (n=10) received 0.2 mg/kg of the TPO mimetic peptide compound administered intravenously (i.v.) via tail vein on Days 2 and 13. Groups 4 and 5 received the combination of carboplatin (60 mg/kg i.p. on Days 1, 2, 12, and 13) and 0.2 mg/kg of the TPO mimetic peptide compound on Days 2, 13 and Days 2, 13, 23, respectively, administered intravenously (i.v.) one hour after carboplatin dosing. Groups 6-9 (n=20 each) were included for blood sampling and received the same treatments as Groups 1-4, respectively. For all groups, each dose of drug was given in a volume of 0.2 mL per 20 g of body weight (10 mL/kg), and was scaled to the body weight of each animal.
[…] Blood was collected into EDTA tubes, and complete blood counts (CBC) with differential were determined using a Cell-Dyn® 3700 System (Abbott Diagnostics) for automated hematology analyses. Reticulocyte values were determined. In addition, for Groups 1-5, five animals per group were euthanized at or just after endpoint by terminal cardiac puncture under CO2 anesthesia, and gross necropsies were performed. Blood samples were collected into EDTA tubes, and CBC with differential and reticulocyte values were performed as previously described. All other animals in Groups 1-5 were euthanized at endpoint without sampling.

Methoxypolyethyleneglycol20000-propionyl-L-Isoleucyl-L-Glutamyl-Glycyl-L-Prolyl-L-Threonyl-L-Leucyl-L-Arginyl-L-Glutaminyl-L-2-Naphthylalanyl-L-Leucyl-L-Alanyl-L-Alanyl-L-Arginyl-Sarcosyl-Ne-(methoxypolyethyleneglycol20000-propionyl-L-Isoleucyl-L-Glutamyl-Glycyl-L-Prolyl-L-Threonyl-L-Leucyl-L-Arginyl-L-Glutaminyl-L-2-Naphthylalanyl-L-Leucyl-L-Alanyl-L-Alanyl-L-Arginyl-Sarcosyl-)-Lysinamide [TPO mimetic peptide compound]
treatment-related (TR) deaths [1]: no treatment-related (TR) deaths
course of platelets (platelet count; 1.5 μg/kg dose): continued to decline up to Day 15
platelets as compared to the placebo subjects (platelet count; 1.5 μg/kg dose): no apparent difference
day of mean peak platelets (platelet count; 3.0 μg/kg dose): 15 days
subjects with platelet increase of more than 3 times the baseline (≧3-fold) (platelet count; 1.5 and 2.25 μg/kg dose): no subjects; also recorded: none of the subjects
day of peak platelets (platelet count; 2.25 and 1.5 μg/kg doses): 21 days
platelet nadir and peak platelet counts relative to placebo (platelet count; 2.25 and 3 μg/kg dose): approximately 2 fold
day of mean platelet nadir (platelet count; 2.25 and 3 μg/kg dose groups): 10 days
platelet count as compared with placebo (platelet count; 2.25 and 3 μg/kg doses): reduction in chemotherapy-induced decline in platelets and faster recovery relative to placebo; also recorded: increased platelet count
Maximum Platelet Counts, GMR (Active/Placebo) (platelet count; Across, 1.5 μg/kg): 1.0
Minimum Platelet Counts, GMR (Active/Placebo) (platelet count; Across, 1.5 μg/kg): 0.6
Minimum Platelet Counts, Geometric Mean (platelet count; Across, 1.5 μg/kg): 33.99
Maximum Platelet Counts, Geometric Mean (platelet count; Across, 1.5 μg/kg): 371.53
Maximum Platelet Counts, GMR (Active/Placebo) (platelet count; Across, 2.25 μg/kg): 1.6
Minimum Platelet Counts, GMR (Active/Placebo) (platelet count; Across, 2.25 μg/kg): 2.7
Minimum Platelet Counts, Geometric Mean (platelet count; Across, 2.25 μg/kg): 163.71
Maximum Platelet Counts, Geometric Mean (platelet count; Across, 2.25 μg/kg): 570.39
Maximum Platelet Counts, GMR (Active/Placebo) (platelet count; Across, 3.0 μg/kg): 1.8
Minimum Platelet Counts, GMR (Active/Placebo) (platelet count; Across, 3.0 μg/kg): 2.0
Minimum Platelet Counts, Geometric Mean (platelet count; Across, 3.0 μg/kg): 121.61
Maximum Platelet Counts, Geometric Mean (platelet count; Across, 3.0 μg/kg): 633.09
Maximum Platelet Counts, GMR (Active/Placebo) (platelet count; Cycle 1, 1.5 μg/kg): 1.1
Minimum Platelet Counts, GMR (Active/Placebo) (platelet count; Cycle 1, 1.5 μg/kg): 0.5
Minimum Platelet Counts, Geometric Mean (platelet count; Cycle 1, 1.5 μg/kg): 47.01
Maximum Platelet Counts, Geometric Mean (platelet count; Cycle 1, 1.5 μg/kg): 331.25
Maximum Platelet Counts, GMR (Active/Placebo) (platelet count; Cycle 1, 2.25 μg/kg): 1.8
Minimum Platelet Counts, GMR (Active/Placebo) (platelet count; Cycle 1, 2.25 μg/kg): 2.3
Minimum Platelet Counts, Geometric Mean (platelet count; Cycle 1, 2.25 μg/kg): 213.46
Maximum Platelet Counts, Geometric Mean (platelet count; Cycle 1, 2.25 μg/kg): 557.78
Maximum Platelet Counts, GMR (Active/Placebo) (platelet count; Cycle 1, 3.0 μg/kg): 2.1
Minimum Platelet Counts, GMR (Active/Placebo) (platelet count; Cycle 1, 3.0 μg/kg): 2.0
Minimum Platelet Counts, Geometric Mean (platelet count; Cycle 1, 3.0 μg/kg): 191.17
Maximum Platelet Counts, Geometric Mean (platelet count; Cycle 1, 3.0 μg/kg): 641.56
Maximum Platelet Counts, GMR (Active/Placebo) (platelet count; Cycle 2, 1.5 μg/kg): 1.0
Minimum Platelet Counts, GMR (Active/Placebo) (platelet count; Cycle 2, 1.5 μg/kg): 1.0
Minimum Platelet Counts, Geometric Mean (platelet count; Cycle 2, 1.5 μg/kg): 75.10
Maximum Platelet Counts, Geometric Mean (platelet count; Cycle 2, 1.5 μg/kg): 290.55
Maximum Platelet Counts, GMR (Active/Placebo) (platelet count; Cycle 2, 2.25 μg/kg): 1.4
Minimum Platelet Counts, GMR (Active/Placebo) (platelet count; Cycle 2, 2.25 μg/kg): 2.2
Minimum Platelet Counts, Geometric Mean (platelet count; Cycle 2, 2.25 μg/kg): 175.08
Maximum Platelet Counts, Geometric Mean (platelet count; Cycle 2, 2.25 μg/kg): 397.37
Maximum Platelet Counts, GMR (Active/Placebo) (platelet count; Cycle 2, 3.0 μg/kg): 1.4
Minimum Platelet Counts, GMR (Active/Placebo) (platelet count; Cycle 2, 3.0 μg/kg): 2.2
Minimum Platelet Counts, Geometric Mean (platelet count; Cycle 2, 3.0 μg/kg): 170.16
Maximum Platelet Counts, Geometric Mean (platelet count; Cycle 2, 3.0 μg/kg): 401.20
platelet elevations in the second cycle (platelet count; all subjects): below 3 times the baseline
day of maximum effect on platelet count after administration (platelet count; human, in vivo): 15 days
increase in platelet count relative to baseline (platelet count; second cycle, 3.0 μg/kg dose): approximately 2 fold
Cmax dose proportionality [2]: increased approximately dose proportionally
mean terminal half-life ([2]; 3 μg/kg, not well defined): approximately 36 hours
AUC dose proportionality ([2]; 1.5- to 3-μg/kg dose range): no apparent dose proportionality
mean reticulocyte values compared to Group 6 controls ([3]; Group 8, all time points): slightly higher
mean hematocrit (HCT) values compared to untreated mice (Group 6) ([3]; Groups 7-9): similar
mean platelet counts compared to untreated Group 6 controls ([3]; Groups 7-9, regimens as Groups 2-4, Days 10, 13, 21, and 23): higher mean platelet counts at all four time points
